Test results published in PubChem BioAssay AID2060882 (Molecular Pharmacology Branch, DTP, NCI, 2025).
Several values for one entry are separate records, joined by “and”; a condition that tells them apart may be missing. Equal values may be shown once.

Test system: 898857-211-R-J1-PDC complex spheroids, growth % test/control
Test: Anticancer human tumor 898857-211-R-J1-PDC patient-derived melanoma cell line growth inhibition [RAS]
Conditions: for viability, T/C: stronger effect = lower value; active means viability on the fitted dose curve at most 10% of control; inactive means the rest
Procedure, shortened: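 Agents were tested in combination matrices in half-log decrements from a top concentration at or near clinical Cmax (10 microM if undetermined). Targets were multi-cell spheroids of tumour lines plus HUVEC and MSC stromal cells.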
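Further: spheroids exposed to compound for seven days before readout.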
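Wherever viability, T/C is given: 100% = DMSO vehicle control wells.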

C[C@@H](NC(=O)c1ncnc(N)c1Cl)c1ncc(C(=O)Nc2cc(C(F)(F)F)c(Cl)cn2)s1 + CCn1c(-c2cccnc2C(C)OC)c2c3cc(ccc31)N1CCOC(CC(NC(=O)C(C(C)C)N(C)C(=O)C3(F)CCN(C(=O)C#CC(C)(C)N(C)C)CC3)C(=O)N3CCCC(N3)C(=O)OCC(C)(C)C2)C1
1.97 µM: IC50 (curve of first compound, second compound 0.3 µM)
3.03 µM: IC50 (curve of first compound, second compound 0.0949 µM)
3.86 µM: IC50 (curve of first compound, second compound 0.000949 µM)
3.12 µM: IC50 (curve of first compound, second compound 0.00949 µM)
2.55 µM: IC50 (curve of first compound, second compound 0.003 µM)
inactive: viability, T/C (second compound 0.000949 µM, first compound 0.0316 µM) 121% | viability, T/C (second compound 0.000949 µM, first compound 0.1 µM) 114% | viability, T/C (second compound 0.000949 µM, first compound 0.316 µM) 112% | viability, T/C (second compound 0.000949 µM, first compound 1 µM) 83.5% | viability, T/C (second compound 0.000949 µM, first compound 3.16 µM) 56.2% | viability, T/C (second compound 0.000949 µM, first compound 10 µM) 27.5% | viability, T/C (second compound 0.003 µM, first compound 0.0316 µM) 128% | viability, T/C (second compound 0.003 µM, first compound 0.1 µM) 105% | viability, T/C (second compound 0.003 µM, first compound 0.316 µM) 103% | viability, T/C (second compound 0.003 µM, first compound 1 µM) 66.4% | viability, T/C (second compound 0.003 µM, first compound 3.16 µM) 45.6% | viability, T/C (second compound 0.003 µM, first compound 10 µM) 28.8% | viability, T/C (second compound 0.00949 µM, first compound 0.0316 µM) 114% | viability, T/C (second compound 0.00949 µM, first compound 0.1 µM) 120% | viability, T/C (second compound 0.00949 µM, first compound 0.316 µM) 111% | viability, T/C (second compound 0.00949 µM, first compound 1 µM) 81.3% | viability, T/C (second compound 0.00949 µM, first compound 3.16 µM) 52.1% | viability, T/C (second compound 0.00949 µM, first compound 10 µM) 27.9% | viability, T/C (second compound 0.03 µM, first compound 0.0316 µM) 123% | viability, T/C (second compound 0.03 µM, first compound 0.1 µM) 116% | viability, T/C (second compound 0.03 µM, first compound 0.316 µM) 97.4% | viability, T/C (second compound 0.03 µM, first compound 1 µM) 83.7% | viability, T/C (second compound 0.03 µM, first compound 3.16 µM) 53.6% | viability, T/C (second compound 0.03 µM, first compound 10 µM) 26.6% | viability, T/C (second compound 0.0949 µM, first compound 0.0316 µM) 105% | viability, T/C (second compound 0.0949 µM, first compound 0.1 µM) 100% | viability, T/C (second compound 0.0949 µM, first compound 0.316 µM) 87.2% | viability, T/C (second compound 0.0949 µM, first compound 1 µM) 66.7% | viability, T/C (second compound 0.0949 µM, first compound 3.16 µM) 51.7% | viability, T/C (second compound 0.0949 µM, first compound 10 µM) 24.9% | viability, T/C (second compound 0.3 µM, first compound 0.0316 µM) 82.9% | viability, T/C (second compound 0.3 µM, first compound 0.1 µM) 87.9% | viability, T/C (second compound 0.3 µM, first compound 0.316 µM) 73.2% | viability, T/C (second compound 0.3 µM, first compound 1 µM) 62.5% | viability, T/C (second compound 0.3 µM, first compound 3.16 µM) 41.8% | viability, T/C (second compound 0.3 µM, first compound 10 µM) 21.3%
3.88 µM: IC50 (curve of first compound, second compound 0.03 µM)

CCN1CCN(Cc2ccc(Nc3ncc(F)c(-c4cc(F)c5nc(C)n(C(C)C)c5c4)n3)nc2)CC1
inactive: viability, T/C (compound 0.00316 µM) 112% and 130% and 92.5% | viability, T/C (compound 0.01 µM) 92% (2×) and 103% | viability, T/C (compound 0.0316 µM) 97.3% and 96% and 83% | viability, T/C (compound 0.1 µM) 73.1% and 62.7% and 65.1% | viability, T/C (compound 0.316 µM) 51.2% and 51.1% and 55.3% | viability, T/C (compound 1 µM) 44.4% and 36% and 33.4%
0.444 µM and 0.323 µM and 0.37 µM: IC50 (curve of compound)
